Where two headings read alike, the source gives them in different places.

Usually LD50 stands for the dose at which mortality reaches 50%.

Data set [1] concerns β-adrenoreceptor. As to the kind of experiment: β-adrenergic blocking activity in anesthetized dogs (antagonism to isoprenaline effects on heart rate, diastolic blood pressure and air-way resistance). Particulars: 10 minutes after i.v. test compound 300 μg/kg; for Inhibition (%) dBP (Diastolic Blood Pressure): antagonism to isoprenaline (1 μg/kg i.v.) induced depression of diastolic blood pressure; for Inhibition (%) dBP (Diastolic Blood Pressure) / Inhibition (%) AR (AirWay Resistance): dogs; for Inhibition (%) HR (Heart Rate): antagonism to isoprenaline (1 μg/kg i.v.) induced increase in heart rate, male hybrid adult dogs; for Inhibition (%) AR (AirWay Resistance): antagonism to isoprenaline depression of histamine (5 μg/kg i.v.) induced increase of air-way resistance. In kind it is in vivo. The method, then: The β-adrenergic blocking activity of the compounds of this invention was determined as follows:
Male hybrid adult dogs, weighing 10 to 16 kg, were anesthesized with sodium pentobarbital administered intravenously at a level of 30 mg/kg of body weight, and a cannula was inserted into the trachea of each of the anesthesized dogs. In order to avoid blood coagulation, heparin was administered intravenously at a level of 1000 units and thereafter a cannula was inserted into the right femoral artery. The experiments were conducted under artificial respiration at a rate of 20 ml/kg, 18 r.p.m.
The above parameters were continuously recorded on a polygraph (8S 28 Type, tradename of Sanei Sokki Co., Japan). During the experiment, gallamine was administered intravenously at a dosage of 3 mg/kg at one-hour intervals to avoid fluctuation of air-way resistance.
The β-adrenergic blocking activity of each of the test compounds was evaluated in terms of antagonism (Inhibition %) to the depression at the diastolic blood pressure (dBP) and to the increase in the heart rate induced by the intravenous administration of isoprenaline (1 μg/kg) and in terms of antagonism (Inhibition %) to the depression by isoprenaline in increase of air-way resistance which was induced by intravenous administration of histamine (5 μg/kg). In this case, histamine was administered 45 seconds after the administration of isoprenaline.

Data set [2] can be described thus: acute toxicity (LD50), i.v. and p.o. More on the design: species or system rats. The conditions noted are these: rat, in vivo. As for the experimental part: Further, the acute toxicity of the compounds of the present invention having the formula (I) was determined by intravenous administration (i.v.) and oral administration (p.o.) in 5 to 6 group of rats (dd, strain; body weight, 18 to 22 g; 10 rats in each group) which have been fasted for 12 hours prior to the test.

For `C#CCOc1ccc(OCC(O)CNC(c2ccccc2)c2ccccc2)c2c1NC(=O)CC2` (stereo not drawn) [Sample 7], in data set [1], the “Inhibition (%) dBP (Diastolic Blood Pressure)” value (“Inhibition (%) dBP” below) stood at 20.5%, the “Inhibition (%) HR (Heart Rate)” value was determined as 18.4% and the “Inhibition (%) AR (AirWay Resistance)” value is given as 8.0%.
As for `COCCOc1ccc(OCC(O)CNCCc2ccc(OC)c(OC)c2)c2c1NC(=O)CC2` (stereo not drawn) [Sample 1], in data set [1], the “Inhibition (%) dBP” value was found to be 28.3%, the “Inhibition (%) HR (Heart Rate)” value is 45.5% and the “Inhibition (%) AR (AirWay Resistance)” value is 25.0%.
As for `CC(=O)Oc1ccc(OCC(O)CNC(C)(C)C)c2c1N(Cc1ccccc1)C(=O)CC2` (stereo not drawn) [Sample 13], in data set [1], the “Inhibition (%) dBP” value is reported as 77.5%, the “Inhibition (%) HR (Heart Rate)” value was determined as 85.2% and the “Inhibition (%) AR (AirWay Resistance)” value stood at 59.3%.
The like results for `COc1ccc(CCNCC(O)COc2cccc3c2CCC(=O)N3)cc1OC` (stereo not drawn) [Comparison Compound 2, reference compound] were, in that order, 65.6%, 87.2% and 79.1%.
`COCCOc1ccc(OCC(O)CNCCOc2ccc(OC)cc2)c2c1NC(=O)CC2` (stereo not drawn) [Sample 20]: in data set [1], the “Inhibition (%) dBP” value worked out at 18.1%, the “Inhibition (%) HR (Heart Rate)” value was determined as 23.7% and the “Inhibition (%) AR (AirWay Resistance)” value is recorded as 8.3%.
`CC(C)(C)NCC(O)COc1ccc(O)c2c1CCC(=O)N2` (stereo not drawn) [Prior Art Compound 1, reference compound]: in data set [1], the “Inhibition (%) dBP” value is on record as 100%, the “Inhibition (%) HR (Heart Rate)” value came out at 100% and the “Inhibition (%) AR (AirWay Resistance)” value was 100%.
`C=CCOc1ccc(OCC(O)CNC(C)(C)C)c2c1NC(=O)CC2.Cl` (stereo not drawn) [Sample 18, 8-allyloxy-5-(3-t-butylamino-2-hydroxypropoxy)-3,4-dihydrocarbostyril hydrochloride]: in data set [1], the “Inhibition (%) dBP” value is given as 100%, the “Inhibition (%) HR (Heart Rate)” value is given as 34.6% and the “Inhibition (%) AR (AirWay Resistance)” value was determined as 0%.
For `COc1ccc(CCNCC(O)COc2ccc(OCC(=O)O)c3c2CCC(=O)N3)cc1OC` (stereo not drawn) [Sample 19], in data set [1], the “Inhibition (%) HR (Heart Rate)” value came to 50.0% and the “Inhibition (%) AR (AirWay Resistance)” value was 9.4%.
For the compound `C#CCOc1ccc(OCC(O)CNC2CCCCC2)c2c1NC(=O)CC2` (stereo not drawn) [Sample 21], in data set [1], the “Inhibition (%) dBP” value is 22.0%, the “Inhibition (%) HR (Heart Rate)” value stood at 17.3% and the “Inhibition (%) AR (AirWay Resistance)” value is reported as 8.3%.
For the compound `COCCOc1ccc(OCC(O)CNCCc2ccc(OC)c(OC)c2)c2c1NC(=O)CC2.O=C(O)/C=C\C(=O)O` (stereo not drawn) [8-(2-methoxyethoxy)-5-[3-(3,4-dimethoxyphenethylamino)-2-hydroxypropoxy]-3,4-dihydrocarbostyril maleate], the LD50 in data set [2] (iv, Rats (Female), read-out: LD50 (50% lethal dose) i.v.) was 160 mg/kg; in data set [2] (iv, Rats (Male), read-out: LD50 (50% lethal dose) i.v.), 185 mg/kg; in data set [2] (po, Rats (Female), read-out: LD50 (50% lethal dose) p.o.), 1450 mg/kg; in data set [2] (po, Rats (Male), read-out: LD50 (50% lethal dose) p.o.) it was 1550 mg/kg.
In the case of `COc1ccc(CCNCC(O)COc2ccc(OCC(C)=O)c3c2CCC(=O)N3)cc1OC` (stereo not drawn) [Sample 4], in data set [1], the “Inhibition (%) dBP” value is 15.1%, the “Inhibition (%) HR (Heart Rate)” value worked out at 44.6% and the “Inhibition (%) AR (AirWay Resistance)” value was 2.7%.
The like results for `COc1ccc(CCNCC(O)COc2ccc(OCCO)c3c2CCC(=O)N3)cc1OC` (stereo not drawn) [Sample 8] were, in that order, 16.8%, 26.3% and 8.1%.
As for `COc1ccc(OCC(O)CNC(C)(C)C)c2c1NC(=O)CC2` (stereo not drawn) [Prior Art Compound 2, reference compound], in data set [1], the “Inhibition (%) dBP” value was determined as 83.7%, the “Inhibition (%) HR (Heart Rate)” value stood at 82.1% and the “Inhibition (%) AR (AirWay Resistance)” value is recorded as 80.2%.
The like results for `CC(C)NCC(O)COc1ccc(CC(N)=O)cc1` (stereo not drawn) [Atenolol, reference compound] were, in that order, 26.9%, 52.3% and 9.8%.
Regarding `CCOC(=O)COc1ccc(OCC(O)CNCCc2ccc(OC)c(OC)c2)c2c1NC(=O)CC2` (stereo not drawn) [Sample 15], in data set [1], the “Inhibition (%) dBP” value was 8.5%, the “Inhibition (%) HR (Heart Rate)” value is given as 10.2% and the “Inhibition (%) AR (AirWay Resistance)” value was 2.7%.
Take `C=CCOc1ccc(OCC(O)CNCC(c2ccccc2)c2ccccc2)c2c1NC(=O)CC2` (stereo not drawn) [Sample 10]: in data set [1], the “Inhibition (%) dBP” value was determined as 20.4%, the “Inhibition (%) HR (Heart Rate)” value stood at 25.8% and the “Inhibition (%) AR (AirWay Resistance)” value is on record as 3.5%.
For the compound `C#CCOc1ccc(OCC(O)CNCCc2ccc(OC)c(OC)c2)c2ccc(=O)[nH]c12` (stereo not drawn) [Sample 16], in data set [1], the “Inhibition (%) dBP” value amounted to 40.9%, the “Inhibition (%) HR (Heart Rate)” value turned out to be 55.3% and the “Inhibition (%) AR (AirWay Resistance)” value is on record as 13.7%.
On to `C=CCOc1ccc(OCC(O)CNCCc2ccc(OC)c(OC)c2)c2c1NC(=O)CC2` (stereo not drawn) [Sample 2], for which, in data set [1], the “Inhibition (%) dBP” value was determined as 23.5%, the “Inhibition (%) HR (Heart Rate)” value is recorded as 50.2% and the “Inhibition (%) AR (AirWay Resistance)” value came out at 24.5%.
On to `COc1ccc(CCNCC(O)COc2ccc(OCC(=O)O)c3c2CCC(=O)N3)cc1OC` (stereo not drawn) [Sample 11], for which, in data set [1], the “Inhibition (%) dBP” value came out at 47.1%, the “Inhibition (%) HR (Heart Rate)” value amounted to 50.0% and the “Inhibition (%) AR (AirWay Resistance)” value is given as 9.4%.
The like results for `COCCOc1ccc(OCC(O)CNC(C)C)c2c1NC(=O)CC2` (stereo not drawn) [Sample 17] were, in that order, 34.1%, 41.8% and 9.7%.
Take `C#CCOc1ccc(OCC(O)CNCC=C)c2c1NC(=O)CC2` (stereo not drawn) [Sample 5]: in data set [1], the “Inhibition (%) dBP” value is on record as 35.0%, the “Inhibition (%) HR (Heart Rate)” value is 50.5% and the “Inhibition (%) AR (AirWay Resistance)” value was 24.3%.
The like results for `C#CCOc1ccc(OCC(O)CNCCc2ccc(OC)c(OC)c2)c2c1NC(=O)CC2` (stereo not drawn) [Sample 3] were, in that order, 39.5%, 57.6% and 14.0%.
Regarding `CC(C)NCC(O)COc1ccc(OC(=O)C2CCCCC2)c2c1CCC(=O)N2` (stereo not drawn) [Sample 14], in data set [1], the “Inhibition (%) dBP” value was determined as 36.3%, the “Inhibition (%) HR (Heart Rate)” value stood at 43.2% and the “Inhibition (%) AR (AirWay Resistance)” value worked out at 27.6%.
Take `CC(C)(C)NCC(O)COc1ccc(OCc2ccccc2)c2c1CCC(=O)N2` (stereo not drawn) [Prior Art Compound 3, reference compound]: in data set [1], the “Inhibition (%) dBP” value is 10.2%, the “Inhibition (%) HR (Heart Rate)” value is 71.3% and the “Inhibition (%) AR (AirWay Resistance)” value is listed as 67.8%.
Consider `C#CCOc1ccc(OCC(O)CNC(C)(C)Cc2ccccc2)c2c1NC(=O)CC2` (stereo not drawn) [Sample 9], for which, in data set [1], the “Inhibition (%) dBP” value is given as 75.7%, the “Inhibition (%) HR (Heart Rate)” value is on record as 61.7% and the “Inhibition (%) AR (AirWay Resistance)” value turned out to be 41.3%.
The like results for `C#CCOc1ccc(OCC(O)CNC(C)(C)C)c2c1NC(=O)CC2` (stereo not drawn) [Sample 6] were, in that order, 94.5%, 100% and 47.6%.
Turning to `CC(C)(C)NCC(O)COc1cccc2c1CCC(=O)N2` (stereo not drawn) [Comparison Compound 1, reference compound], in data set [1], the “Inhibition (%) dBP” value came out at 100%, the “Inhibition (%) HR (Heart Rate)” value was found to be 100% and the “Inhibition (%) AR (AirWay Resistance)” value was 100%.
For the compound `COc1ccc(CCNCC(O)COc2ccc(OCC(N)=O)c3c2CCC(=O)N3)cc1OC` (stereo not drawn) [Sample 12], in data set [1], the “Inhibition (%) dBP” value was 44.2%, the “Inhibition (%) HR (Heart Rate)” value was 57.9% and the “Inhibition (%) AR (AirWay Resistance)” value amounted to 15.2%.

Values taken from patent US4289883A, “Carbostyril compounds” (Otsuka Pharmaceutical Co., Ltd., priority 1976, dated 1981).
